# According to patent US20250049749A1, “COMPOSITION FOR IMPROVING SLEEP QUALITY OR CONTROLLING AUTONOMIC NERVOUS SYSTEM” (OTSUKA PHARMACEUTICAL CO., LTD., priority 2021, published 2025):
# Entries after “also recorded” stand apart in the source; their conditions may differ.
# What was measured:
# Assay type in all cases: in vivo, human
# [1] = test system: athletes; assay: Test 2: athlete questionnaire (0 to 10) and comments before and on day 30 of intake
# Experimental: The following tests were carried out to investigate the functions of kaempferol. [table] [table] In addition to the above score evaluations, an optional evaluation of the mental and physical state after intake of the test sample as compared to that before the intake was obtained in the form of comments.
# [2] = test system: persons with meteoropathy; assay: Test 3: meteoropathy symptom questionnaire before and after start of intake
# Experimental: The test shown below was conducted to investigate the functions of kaempferol associated with meteoropathy. [table]
# [3] = test system: healthy adult men and women; assay: Test 1: randomized, double-blind, placebo-controlled, crossover comparative test (sleep and autonomic nervous system, Fitbit Charge 4)
# Experimental: A randomized, double-blind, placebo-controlled, crossover comparative test as summarized in the table below was conducted to examine the relationship between kaempferol, sleep, and the autonomic nervous system.
# The granular foods used in the test were prepared according to the following procedure. Horseradish leaves were extracted twice with 50% aqueous ethanol at 50° C. and concentrated under reduced pressure. The concentrate was purified with resin to obtain a solution. Hemicellulase “Amano” 90 and Lactase F “Amano” (produced by Amano Enzyme, Inc.) were added to the solution to allow the enzyme to act thereon while stirring at 50° C. The resulting reaction liquid was then heated to 80° C. and maintained for 20 minutes to inactivate the enzyme. The resulting treated liquid was then freeze-dried to give an ethanol extract powder. This powder was combined with an equal amount (on a weight basis) of starch and erythritol and mixed into granules. The granules were packed in aluminum pouches in an amount of 116 mg (containing 10 mg of kaempferol) per pouch. The subjects ingested the contents of one pouch at one time (10 mg of kaempferol in total). The food used as a placebo was granules of starch and erythritol.
# The sleep score is an index of sleep quality on a scale of 0 to 100, with a score of 90 to 100 indicating very good sleep quality, a score of 80 to 89 indicating good sleep quality, a score of 60 to 79 indicating slightly low sleep quality, and a score of 60 or less indicating low sleep quality. The sleeping heart rate is known to correlate with sleep quality. Specifically, it has been reported that the higher the heart rate during sleep, the less satisfactory the sleep obtained is (i.e., the quality of sleep is low) (see Non-Patent Literature (NPL) 1). […] This is generally consistent with the difference between the average sleeping heart rate in people with good quality sleep and that in people with poor sleep quality (FIG. 3 in NPL 1).
# RMSSD is the square root of the mean squared differences of successive adjacent R-R intervals (interval from one QRS wave to the next QRS wave) and is an index of vagal tone intensity. A rise in RMSSD indicates increased parasympathetic activity or decreased sympathetic activity. […] According to the formula shown in FIG. 2 (right), KMP intake is considered to rejuvenate the age of autonomic nervous system function by 16.3 years.
# The LF/HF ratio is a ratio of low frequency (LF) to high frequency (HF) power and represents the overall balance between the sympathetic nervous system and the parasympathetic nervous system. A higher LF/HF ratio indicates a state of sympathetic nervous system dominance, whereas a lower LF/HF ratio indicates parasympathetic nervous system dominance. […] According to the formula shown in FIG. 3 (right), KMP intake is considered to rejuvenate the age of autonomic nervous system function by 5.8 years.
# [4] = 10 mg KMP once a day, day 30 vs before intake, FIG. 4, FIG. 5
# [5] = all subjects (159 athletes), 10 mg KMP once a day, day 30 vs before intake, FIG. 4
# [6] = optional comment of a single subject, state after intake of the test sample vs before
# [7] = swimmers (50 persons), day 30 vs before intake, FIG. 5
# [8] = all symptoms, during KMP intake vs before, FIG. 7
# [9] = 10 mg KMP once a day, two weeks, vs placebo, FIG. 1
compound,measurement,setting,value
"O=c1c(O)c(-c2ccc(O)cc2)oc2cc(O)cc(O)c12 [KMP, kaempferol]",Achievement of exercise performance,[1]; [4],useful
same,Fatigue alleviation,[1]; [4],useful
same,Improvement of endurance (improved shortness of breath),[1]; [4],useful
same,Recovery from fatigue,[1]; [4],useful
same,Ease in sleep (questionnaire score),[1]; [5],significant improvement
same,Ease in waking up (questionnaire score),[1]; [5],significant improvement
same,Comments relating to menstruation,[1]; [6],Menstrual pain has been relieved. Menstrual cycle; also recorded: irregularities has been improved; also recorded: Menstrual pain has been relieved and abdominal; also recorded: Swollen feet before menstruation has been relieved; also recorded: has come naturally; also recorded: returned to normal
same,Comments relating to mental state,[1]; [6],Have more motivation to practice; also recorded: Feel more highly motivated before a competition; also recorded: Feel more positive; also recorded: More mentally stable; also recorded: No longer feel depressed; also recorded: Feel less tired and more motivated to practice; also recorded: Feel better during practice; also recorded: Have become able to run more calmly than usual; also recorded: Feel more comfortable during running; also recorded: Feel more relaxed both during and outside of practice
same,Other comments,[1]; [6],The time taken to get rid of jet lag was reduced; also recorded: The symptoms of seasonal colds were not seen; also recorded: Stools have improved; also recorded: Bowel movements have improved; also recorded: Healing from injuries is faster; also recorded: Healing of fractures is much faster; also recorded: Healing of wounds after tooth extraction is faster; also recorded: Easier body weight loss; also recorded: Easier to control body weight gain; also recorded: Have improved concentration; also recorded: Symptoms of jet lag were alleviated
same,"Ease in sleep (questionnaire score), improvement in swimmers",[1]; [7],particularly prominent
same,"Ease in waking up (questionnaire score), improvement in swimmers",[1]; [7],particularly prominent
same,Effect on meteoropathy overall,"[2]; 10 mg KMP once a day, 4 consecutive weeks",effective in the treatment and improvement of meteoropathy
same,Frequency of occurrence of each symptom of meteoropathy,"[2]; all 12 symptoms (stiff shoulders and neck, fatigue, lassitude, headache, overall ill health, irritation, depressed mood, inability to think straight, lower back pain, lethargy, anxiety, joint pain), 10 mg KMP once a day, 4 weeks, vs before intake, 393 subjects, FIG. 6",significantly reduces
same,Degree of each symptom of meteoropathy (0-10 point scale),"[2]; all 12 symptoms, KMP intake vs before intake, FIG. 8",significantly alleviated
same,Duration of each symptom of meteoropathy,[2]; [8],significantly reduced duration
same,Proportion of no occurrence of the symptom,[2]; [8],increased proportion of no occurrence
same,Reduction of sleeping heart rate on average,[3]; [9],3.5 bpm
same,Sleep duration,[3]; [9],no significant change
same,Sleeping heart rate,[3]; [9],significantly reduces
same,RMSSD during sleep,"[3]; 10 mg KMP once a day, two weeks, vs placebo, FIG. 2 (left)",increase in RMSSD value
same,LF/HF ratio during sleep,"[3]; 10 mg KMP once a day, two weeks, vs placebo, FIG. 3 (left)",reduces the LF/HF ratio
same,Rejuvenation of the age of autonomic nervous system function (from RMSSD vs age formula),[3]; according to the formula shown in FIG. 2 (right),16.3 years
same,Rejuvenation of the age of autonomic nervous system function (from LF/HF ratio vs age formula),[3]; according to the formula shown in FIG. 3 (right),5.8 years
same,Sleep score,"[3]; granular food with 10 mg KMP once a day after breakfast, two weeks, vs placebo, 34 subjects, scale 0 to 100, FIG. 1",significantly improves
